Key:
Experiment in all cases: Post-emergence efficacy, glasshouse
Type in all cases: in vivo
Details in all cases: after 13 days, 100=total damage to plant, 0=no damage to plant
[1] = system: Setaria faberi (SETFA)
Protocol: (§1) Seeds of a variety of test species were shown in standard soil in pots. After cultivation for 14 days (post-emergence) under controlled conditions in a glasshouse (at 24/16° C., day/night; 14 hours light; 65% humidity), the plants were sprayed with an aqueous spray solution derived from the dissolution of the technical active ingredient for each of compounds 1 to 26 from Table A above, in a small amount of acetone and a special solvent and emulsifier mixture referred to as IF50 (11.12% Emulsogen EL360 TM+44.44% N-methylpyrrolidone+44.44% Dowanol DPM glycol ether), to create a 50 g/I solution which was then diluted to required concentration using 0.25% or 1% Empicol ESC70 (Sodium lauryl ether sulphate)+1% ammonium sulphate in water as diluent. These spray test compositions are described as composition numbers C1 to C26, with the numerical value corresponding to the compound number from Table A.
(§2) The test plants were then grown in a glasshouse under controlled conditions (at 24/16° C., day/night; 14 hours light; 65% humidity) and watered twice daily. After 13 days the test was evaluated (100=total damage to plant; 0=no damage to plant).
(§3) Ipomoea hederacea (IPOHE), Euphorbia heterophylla (EPHHL), Chenopodium album (CHEAL), Amaranthus palmeri (AMAPA), Lolium perenne (LOLPE), Digitaria sanguinalis (DIGSA), Eleusine indica (ELEIN), Echinochloa crus-galli (ECHCG), Setaria faberi (SETFA)

[2] = system: Euphorbia heterophylla (EPHHL)
Protocol: as §1, §2, §3

[3] = system: Echinochloa crus-galli (ECHCG)
Protocol: as §1, §2, §3

[4] = system: Eleusine indica (ELEIN)
Protocol: as §1, §2, §3

[5] = system: Lolium perenne (LOLPE)
Protocol: as §1, §2, §3

[6] = system: Amaranthus palmeri (AMAPA)
Protocol: as §1, §2, §3

[7] = system: Ipomoea hederacea (IPOHE)
Protocol: as §1, §2, §3

[8] = system: Digitaria sanguinalis (DIGSA)
Protocol: as §1, §2, §3

[9] = system: Chenopodium album (CHEAL)
Protocol: as §1, §2, §3

Row | Structure (SMILES) | Control of weed species SETFA ([1]; 1000 g/Ha) | Control of weed species EPHHL ([2]; 1000 g/Ha) | Control of weed species ECHCG ([3]; 1000 g/Ha) | Control of weed species ELEIN ([4]; 1000 g/Ha) | Control of weed species LOLPE ([5]; 1000 g/Ha) | Control of weed species AMAPA ([6]; 1000 g/Ha) | Control of weed species IPOHE ([7]; 1000 g/Ha) | Control of weed species DIGSA ([8]; 1000 g/Ha) | Control of weed species CHEAL ([9]; 1000 g/Ha) | Control of weed species SETFA ([1]; 500 g/Ha) | Control of weed species EPHHL ([2]; 500 g/Ha) | Control of weed species ECHCG ([3]; 500 g/Ha) | Control of weed species ELEIN ([4]; 500 g/Ha) | Control of weed species LOLPE ([5]; 500 g/Ha) | Control of weed species AMAPA ([6]; 500 g/Ha) | Control of weed species IPOHE ([7]; 500 g/Ha) | Control of weed species DIGSA ([8]; 500 g/Ha) | Control of weed species CHEAL ([9]; 500 g/Ha)
1 | CCOP(=O)(O)c1c[n+](C)nc2ccccc12.O=C([O-])C(F)(F)F [Composition C1] | 80 | 100 | 70 | 90 | 60 | 90 | 100 | 90 | 100 | – | – | – | – | – | – | – | – | –
2 | CCCCOP(=O)(O)c1c[n+](C)nc2ccccc12.O=C([O-])C(F)(F)F [Composition C2] | – | – | – | – | – | – | – | – | – | 60 | 100 | 30 | 40 | 30 | 60 | 80 | 60 | 70
3 | CCOP(=O)(O)c1c[n+](C)nc2ccccc12.[Cl-] [Composition C3] | 90 | 100 | 70 | 90 | 50 | 90 | 100 | 100 | 100 | – | – | – | – | – | – | – | – | –
4 | C#CCOP(=O)([O-])c1c[n+](C)nc2ccccc12 [Composition C4] | 100 | 100 | 90 | 100 | 90 | 100 | 100 | 100 | 100 | – | – | – | – | – | – | – | – | –
5 | C=CCOP(=O)([O-])c1c[n+](C)nc2ccccc12 [Composition C5] | – | – | – | – | – | – | – | – | – | 80 | 90 | 90 | 100 | 60 | 90 | 70 | 90 | 100
6 | C[n+]1cc(P(=O)([O-])OCC(F)(F)F)c2ccccc2n1 [Composition C6] | 90 | 100 | 100 | 100 | 80 | 100 | 100 | 100 | 100 | – | – | – | – | – | – | – | – | –
7 | C[n+]1cc(P(=O)([O-])OCC2CC2)c2ccccc2n1 [Composition C7] | 90 | 100 | 80 | 100 | 60 | 90 | 100 | 100 | 90 | – | – | – | – | – | – | – | – | –
8 | CC(C)OP(=O)([O-])c1c[n+](C)nc2ccccc12 [Composition C8] | 90 | 100 | 100 | 100 | 50 | 100 | 100 | 100 | 100 | – | – | – | – | – | – | – | – | –
9 | COP(=O)([O-])c1c(C)[n+](C)nc2ccccc12 [Composition C9] | 70 | 50 | 40 | 80 | 50 | 100 | 90 | 80 | 90 | – | – | – | – | – | – | – | – | –
10 | COCCOP(=O)([O-])c1c[n+](C)nc2ccccc12 [Composition C10] | 100 | 100 | 70 | 100 | 20 | 100 | 80 | 90 | 100 | – | – | – | – | – | – | – | – | –
11 | C[n+]1cc(P(=O)([O-])Oc2ccccc2)c2ccccc2n1 [Composition C11] | 50 | 60 | 20 | 80 | 30 | 100 | 70 | 70 | 70 | – | – | – | – | – | – | – | – | –
12 | CCCCOP(=O)([O-])c1c[n+](C)nc2ccccc12 [Composition C12] | – | – | – | – | – | – | – | – | – | 70 | 100 | 70 | 100 | 40 | 100 | 100 | 70 | 100
13 | COP(=O)([O-])c1c[n+](C)nc2ccc(C)cc12 [Composition C13] | – | – | – | – | – | – | – | – | – | 100 | 100 | 90 | 100 | 30 | 100 | 70 | 100 | 100

Reference: patent US20220248678A1, “HERBICIDAL COMPOUNDS” (SYNGENTA CROP PROTECTION AG, priority 2019, published 2022)
